Experimental data reported in the supplement of paper PMC8882468.

Key:
Assay in all cases: CTG-3D luminescence at 96 h relative to day-0 seeding control (ratio to day 0); higher = more growth / less cytotoxicity; PDxO 3D drug screen, 96 h, CTG-3D normalised to day-0 seeding control.
[1] = test system: HCI-002 (organoid from a triple-negative breast cancer xenograft)
[2] = test system: HCI-010 (organoid from a breast cancer xenograft)
[3] = test system: HCI-011.E2 (organoid from an ER-positive breast cancer xenograft)
[4] = test system: HCI-017.E2 (organoid from an ER-positive breast cancer xenograft)
[5] = test system: HCI-025 (organoid from a breast cancer xenograft)

NC(=O)Nc1cc(-c2cccc(F)c2)sc1C(=O)N[C@H]1CCCNC1 [AZD7762]
CTG-3D luminescence at 96 h
Conditions	12.5 pM	0.00025 µM	0.005 µM	0.1 µM	1 µM	10 µM	100 µM	625 fM
[1], days in culture: 62	2.52	2.46	2.85	2.92	1.41	0.539	0.00339	3.08
[1], days in culture: 82	2.71	3.02	2.27	2.44	1.47	0.623	0.00321	2.87
[1], days in culture: 91	3.98	3.93	3.26	3.87	2.42	0.946	0.00426	4.19
[1], days in culture: 191	2.47	2.51	2.36	2.27	2	0.525	0.00388	2.69
[1], days in culture: 209	2.16	2.27	2.12	1.89	1.31	0.332	0.00089	2.27
[1], days in culture: 227	5.71	5.98	5.18	5.24	2.21	0.595	-0.201	6.1
[2], days in culture: 52	2.15	2.42	2.03	0.844	0.355	0.327	-0.0157	2.28
[2], days in culture: 65	1.69	1.62	1.42	0.742	0.378	0.219	0.00203	1.65
[2], days in culture: 103	3.16	3.35	3.16	1.23	0.651	0.537	0.0021	3.22
[3], days in culture: 74	2.04	2.16	1.88	1.68	1.62	1.33	0.00724	1.92
[4], days in culture: 85	2.53	3.05	2.76	2.37	1.67	1.26	0.0135	2.7
[5], days in culture: 172	3.17	1.83	2.73	0.677	0.305	0.0747	-0.00404	2.61
[5], days in culture: 209	1.54	2.2	1.92	0.713	0.29	0.0922	-0.00311	1.39
[5], days in culture: 218	1.78	1.97	2.04	1.33	0.198	0.105	-0.00375	1.77

CTG-3D luminescence at 96 h
Conditions	12.5 pM	0.00025 µM	0.005 µM	0.1 µM	1 µM	10 µM	100 µM	625 fM
[3]	1.57	1.86	1.56	1.77	1.66	1.32	0.00993	1.71
[4]	1.919	2	2.23	1.853	1.22	1.22	0.00946	2.25
